Reference: ChEMBL document CHEMBL1157539, “Thousands of chemical starting points for antimalarial lead identification” (Nature, 2010)

test system: Plasmodium falciparum; assay: GSK_TCMDC: Inhibition of Plasmodium falciparum 3D7 in whole erythrocytes, using parasite LDH activity as an index of growth.; type: functional, organism-based; details: Plasmodium falciparum, 3D7

Structure (SMILES)	XC50 [nM]
CCC1(C)CC(CCNCc2ccccc2O)(c2ccc(F)cc2)CCO1 (stereo not given)	880
COCCn1ccc2c3c(N)nc(N)nc3ccc21	214
CN1CCCN(Cc2ccc(-c3ccc(NC(=O)c4ccc(C#N)cc4)cc3)cc2)CC1	1020
CCN1CCN(Cc2c(O)ccc3c(=O)c(Oc4cc(C)cc(C)c4)c(C(F)(F)F)oc23)CC1	773
c1ccc(-c2nc(NCCCn3ccnc3)cc(-c3ccncc3)n2)cc1	167
CC(C)[C@H](NCC(=O)c1ccccc1)C(=O)O	783
CCn1c(-c2nonc2N)nc2c(-c3cccc(NC(=O)Nc4ccc5c(c4)CCC5)c3)ncc(OCCCN)c21	783
COc1cccc(CN2CCCC(OC(c3ccc(F)cc3)c3ccc(F)cc3)C2)c1O (stereo not given)	788
COc1ccc2ncc(F)c(CCN3CCC(NCc4cc(C)c5c(c4)OCCO5)CC3)c2n1	493
CC(=NNC(S)=Nc1ccccc1Cl)c1ccccn1	80.3
COc1ccc2[nH]c(C)cc(=NN=Cc3cc(OC)c(OC)cc3OC)c2c1	739
Cc1cc(N[C@@H](Cc2ccccc2)C(=O)NCCOc2ccccc2)nc(NCCc2ccc(F)cc2)n1	603
CCCCCCn1c(Sc2ccc(C#N)c([N+](=O)[O-])c2)nnc1-c1cccs1	706
COc1ccc(-n2ccnc2SCC(=O)Nc2cc(C)ccc2C)c(OC)c1	205
Cc1cc(NC(=O)NCCN2CCC(NC(=O)c3ccc(Cl)cc3)CC2)c2ccccc2n1	381
N#Cc1ccccc1C1CCN(C2CCC(Nc3cc(-c4cccnc4)ccn3)CC2)CC1 (stereo not given)	958
CCn1c(-c2nonc2N)nc2cnc(Oc3cccc(NC(=O)c4ccc(OCCN(C(C)C)C(C)C)cc4)c3)cc21	780
NC1CCN(c2nc(NCCCc3ccc(O)cc3)nc(NCc3cccc4ccccc34)n2)CC1	724
O=C(/C=C/c1ccc(Cl)c(Cl)c1)NCCCCCN1CCCN(C(=O)Nc2ccc(F)c(Cl)c2)CC1	799
CCCn1c(=N)c(C(=O)NCCc2ccccc2)cc2c(=O)n3cccc(C)c3nc21	1120
O=C(Nc1ccc(Cl)c(Cl)c1)N1CCC(CN2CCC(c3c[nH]c4ccccc34)CC2)CC1	295
CCN(CCCN1CCCCC1)c1cc(C)nc(Nc2ccc(F)c(C(F)(F)F)c2)n1	147
Cc1cc(N[C@@H](Cc2ccccc2)C(=O)NC2CCCC2)nc(Nc2ccccc2)n1	828
Cc1c(S(=O)(=O)Nc2cccc(CCN3CCCCC3CCN3CCCC3)c2)sc2ccc(Cl)cc12 (stereo not given)	925

Structure (SMILES)	XC50 [nM]
COc1ccc(Cl)cc1N1CCN(CCCNC(=O)c2ccc(-c3nc4cc(Cl)c(F)cc4[nH]3)c(F)c2)CC1	1110
CC(Cc1ccc(OCCCCOc2ccccc2)cc1)NCCc1ccccc1Cl (stereo not given)	175
Cc1ccc(C(=O)Nc2ccc(C)c(OC3CCN(CCC(C)C)C3)c2)cc1 (stereo not given)	793
N#Cc1ccc(N/C(=N\c2ccc(-c3ccccc3)cc2)NCc2cccnc2)c(O)c1	813
COc1cccc(-c2cccc(CNC3CCN(CC4Cn5c(=O)ccc6ccc(F)c4c65)CC3)c2)c1 (stereo not given)	934
COc1ccc2c(NN=Cc3cccc(C)n3)ccnc2c1	761
CC(C)(C)Cn1cc(-c2ccc(C(=O)NCCc3ccc(S(C)(=O)=O)cc3)cc2)c(N)n1.CC(C)(C)Cn1ncc(-c2ccc(C(=O)NCCc3ccc(S(C)(=O)=O)cc3)cc2)c1N	647
CC(Cc1ccc(NC(=O)[C@@H](C)NCCc2cccc(Cl)c2)cc1)NCCc1cccc(Cl)c1 (stereo not given in full)	778
O=[N+]([O-])c1ccc(Oc2ccccc2CNCC2CCN(CC3CCCCC3)CC2)cc1	903
COc1cccc(OC)c1C(=O)Nc1cccc(-c2nn3ccccc3c2-c2ccnc(Nc3cccc(F)c3)n2)c1	749
COc1ccc(NS(=O)(=O)c2ccc(C(=O)Nc3ccc(OC(F)(F)F)cc3)cc2)cc1N1CCN(CC2CC2)CC1	1000
O=C(Nc1ccccc1F)NC1CCN(c2ccnc(Nc3ccc(F)cc3)n2)CC1	754
CC(C)CC(=O)N(Cc1ccc(-c2ccc(CNC3Cc4ccccc4C3)cc2)cc1)C1CCNCC1	1170
COc1cc(F)c2nccc([C@@H](O)CN3CCC(NCc4nc5cccc(F)c5[nH]4)CC3)c2c1	847
OC1(c2ccc(Br)cc2)CCN(C2CCN(Cc3ccccc3)CC2)CC1	597
CCc1ccc(CC(C)NCC(O)c2ccccc2)cc1 (stereo not given)	887
N#Cc1ccc2c(c1)CCN(CCC1CCC(NC(=O)/C=C/c3cccc4ccccc34)CC1)CC2 (stereo not given)	729
COc1ccc(CNCc2ccsc2)cc1-c1ccc(S(=O)(=O)NCCN2CCCC2)s1	766
COc1cccc(CN2CCC3(CC2)CN(C(=O)Nc2ccc(Cl)c(Cl)c2)C3)c1	752
CCCc1cc(OC)c(C[C@@H]2c3cc(O)c(Cl)cc3CCN2C)cc1OC	722
Cc1c(CNCCCNc2nc3ccncc3[nH]2)sc(Br)c1Br	1040
Cc1c(CCNC(=O)CCCN2CC(C)CC(C)C2)c2ccccc2n1C (stereo not given)	1270
O=C(/C=C/c1ccc(Cl)c(Cl)c1)N1CCC(CN2CCC(c3c[nH]c4ccncc34)CC2)CC1	733
C[C@H](Cc1ccc(OCCCCCCOc2ccccc2)cc1)NC[C@H](O)c1cccc(Cl)c1	70.4

Structure (SMILES)	XC50 [nM]
COc1ccc(Cc2c(C)nc3nc(N)nc(N)c3c2C)cc1OC	912
OC(CNc1ccnc(Nc2ccc(Cl)cc2)n1)c1ccc(C(F)(F)F)cc1 (stereo not given)	771
Cc1cccc2nc(-c3ccc(-c4cccc(NC(=O)c5cccc(C(N)=O)c5)c4)cc3)[nH]c12	1130
CC[C@H]1CN2CC[C@H]1C[C@H]2[C@H](O)c1cc(Cl)nc2ccc(OC)cc12	578
NC(=O)c1ccccc1Nc1nc(Nc2cccc(N3CCN(CCO)CC3)c2)ncc1Cl	39.6
Cc1cc(N)c2cc(NC(=O)/C=C/c3ccc([N+](=O)[O-])cc3)ccc2n1	669
Cc1cc2c(cc1C(F)(F)F)N(C(=O)Nc1cc(OCCN(C(C)C)C(C)C)cc(C(F)(F)F)c1)CC2	259
CCCC1(NC[C@@H](O)[C@H](Cc2ccccc2)NC(=O)c2cc(NCC)cc(N3CCCCS3(=O)=O)c2)CCC1	720
Oc1ccc2ccccc2c1C=NNc1nc(=Nc2ccccc2)nc(N2CCOCC2)[nH]1	885
O=C(NCc1ccco1)c1ccc(S(=O)(=O)c2ccc(Cl)cc2)cc1	448
CCOC(=O)c1ccc(COc2ccc(C)nc2)cc1	542
Nc1ncc(-c2ccc(F)cc2)cc1-c1nc2ccc(Cl)cc2[nH]1	753
C=C(C)Cn1cc(C2CCN(CCCCNC(=O)c3sc(-c4ccc(Cl)cc4Cl)nc3CO)CC2)c2ccccc21	1150
CCN(c1cc(C)nc(Nc2ccc(Cl)cc2)n1)[C@H]1CCN(Cc2ccccc2)C1	855
COc1cc2c(cc1C=CC(=O)N1CCN(Cc3nc(O)c4c(C)c(C)sc4n3)CC1)OC(C)C2 (stereo not given)	1020
CCCCN(CCCC)/C(=N/c1cccc(Cl)c1Cl)Nc1ccc(C#N)cc1O	853
Cc1cccc2nc(-c3ccc(-c4ccc(C(=O)NCCN5CCCC5)cc4)s3)[nH]c12	901
CC(=O)Nc1nc(C(=O)Nc2cccc(-c3cccc(-c4nc5cccc(C)c5[nH]4)c3)c2)cs1	115
COc1ccc(CNC2CCN(C)CC2)cc1-c1ccc(S(=O)(=O)NCCc2ccccn2)cc1	1090
CC(Nc1ccc2c(c1)CCC2)C(=O)Nc1cc(C(F)(F)F)ccc1N1CCOCC1 (stereo not given)	85.3
O=C(Nc1ccc(OC2CCN(Cc3ccsc3)C2)c(Cl)c1)c1ccc2ncccc2c1 (stereo not given)	966
C1=C(c2c[nH]c3ccccc23)CCN(Cc2ccccc2)C1	1040
